Legend:
[1] = system: adenocarcinomic human alveolar basal epithelial cell line A549; assay: High content analysis of anticancer agents by cell image analysis (Experimental Example 8); assay type: cell-based; settings: for IC50: Homo sapiens; for average cell number per sphere / average dead cell number in sphere / average sphere number per 20 mm^2 / projected area: 0.03 (w/v)% low-molecular agar medium, 7 days with agent;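 for projected area: Projected area in square micrometres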
Protocol: Adenocarcinomic human alveolar basal epithelial cell line A549 (manufactured by DS PHARMA BIOMEDICAL CO., LTD.) was suspended in the above-mentioned medium composition containing low-molecular agar at 11,000 cells/mL. […] The plate was stood in a CO2 incubator (37° C., 5% CO2) overnight. The next day, paclitaxel (manufactured by Wako Pure Chemical Industries, Ltd.) and trametinib (manufactured by SANTA CRUZ) were further added by 10 μl per 1 well at a final concentration of 0.001 μM, 0.01 μM and 0.1 μM, respectively, mitomycin C (manufactured by Wako Pure Chemical Industries, Ltd.) at a final concentration of 0.005 μM, 0.05 μM and 0.5 μM, and MK2206 (manufactured by SANTA CRUZ) at a final concentration of 0.001 μM, 0.01 μM, 0.1 μM and 1 μM. Successively, the plate was further cultured in a standing state in a CO2 incubator (37° C., 5% CO2) for 7 days.
Successively, a solution of 20 μg/mL Propidium Iodide (manufactured by BIOMOL) in DMEM (phenol red, L-glutamine free) (manufactured by Wako Pure Chemical Industries, Ltd.) was prepared and added at 10 μL per 1 well, and the culture medium was suspended. The plate was centrifuged at 1,500 rpm for 1 min, and high content analysis was performed by cell image analysis using a cell imaging apparatus (“ArrayScan VTI HCS Reader”, manufactured by Thermo Fisher Scientific). At that time, observation was performed with 20 fields of view per well using a ×10 objective lens, cell outline and cell nucleus were detected from Hoechst33342 fluorescence image, and dead cells were detected from propidium iodide fluorescence image. In addition, 50% inhibitory concentration (nM) of each anticancer agent by high content analysis was calculated from the number of spheres constituted of not less than 5 cells. In this case, the value without addition of the anticancer agent was taken as 0% sphere formation inhibitory rate.

[2] = system: adenocarcinomic human alveolar basal epithelial cell line A549; assay: CellTiter-Glo cell survival assay of anticancer agents (Experimental Example 8); assay type: cell-based; settings: for IC50: Homo sapiens, A549, cell survival assay by luminescence, read-out: 50% inhibitory concentration
Protocol: Adenocarcinomic human alveolar basal epithelial cell line A549 (manufactured by DS PHARMA BIOMEDICAL CO., LTD.) was suspended in the above-mentioned medium composition containing low-molecular agar at 11,000 cells/mL. The above-mentioned cell suspension was dispensed to the wells of a 96 well flat bottom ultra-low attachment surface microplate (manufactured by Corning Incorporated, #3474) at 90 μL per 1 well. The plate was stood in a CO2 incubator (37° C., 5% CO2) overnight. […] Successively, the plate was further cultured in a standing state in a CO2 incubator (37° C., 5% CO2) for 7 days. As a negative control, a medium composition containing 10 (v/v) % FBS alone in DMEM (manufactured by Wako Pure Chemical Industries, Ltd.) was prepared. […] A549 cells were also suspended in each of the negative control and comparison control medium compositions, the negative control was dispensed to a 96 well flat bottom attachment surface microplate (manufactured by Corning Incorporated, #3585) and the comparison control was dispensed to a 96 well flat bottom ultra-low attachment surface microplate (manufactured by Corning Incorporated, #3474). […] CellTiter-Glo Luminescent Cell Viability Assay (manufactured by Promega) (100 μL) was added to the low-molecular agar-containing culture medium and each cell culture medium of the negative control and comparison control, the mixture was stood for 10 min at room temperature, and the amount of luminescence was measured by a microplate reader (“FlexStation 3”, manufactured by Molecular Devices) and according to the protocol recommended by Promega. The amount of luminescence of the medium alone was subtracted, whereby the number of viable cells was measured.

[3] = comparison control (0.015 (w/v)% deacylated gellan gum medium)
[4] = low-molecular agar-containing medium
[5] = negative control (DMEM, 10% FBS, attachment surface plate)
[6] = A549, high content analysis by cell image analysis, number of spheres of not less than 5 cells, low-molecular agar-containing medium, read-out: 50% inhibitory concentration
[7] = agent 0.001 μM, comparison control (0.015 (w/v)% deacylated gellan gum medium)
[8] = agent 0.001 μM, low-molecular agar-containing medium
[9] = agent 0.001 μM, negative control (DMEM, 10% FBS, attachment surface plate)
[10] = agent 0.01 μM, comparison control (0.015 (w/v)% deacylated gellan gum medium)
[11] = agent 0.01 μM, low-molecular agar-containing medium
[12] = agent 0.01 μM, negative control (DMEM, 10% FBS, attachment surface plate)
[13] = agent 0.1 μM, comparison control (0.015 (w/v)% deacylated gellan gum medium)
[14] = agent 0.1 μM, low-molecular agar-containing medium
[15] = agent 0.1 μM, negative control (DMEM, 10% FBS, attachment surface plate)

SMILES: CO[C@@]12[C@H](COC(N)=O)C3=C(C(=O)C(C)=C(N)C3=O)N1C[C@@H]1N[C@@H]12 [mitomycin C]
- IC50 ([1]; A549, read-out: 50% inhibitory concentration): 6.4 nM
- average cell number per sphere ([1]; agent 0.005 μM): 3.72
- average dead cell number in sphere ([1]; agent 0.005 μM): 0.151
- average sphere number per 20 mm^2 ([1]; agent 0.005 μM): 265.2
- projected area ([1]; agent 0.005 μM): 1139 μm^2
- average cell number per sphere ([1]; agent 0.05 μM): 2.187
- average dead cell number in sphere ([1]; agent 0.05 μM): 0.33
- average sphere number per 20 mm^2 ([1]; agent 0.05 μM): 190.6
- projected area ([1]; agent 0.05 μM): 810.7 μm^2
- average cell number per sphere ([1]; agent 0.5 μM): 1.447
- average dead cell number in sphere ([1]; agent 0.5 μM): 0.606
- average sphere number per 20 mm^2 ([1]; agent 0.5 μM): 113.3
- projected area ([1]; agent 0.5 μM): 460.8 μm^2
- IC50 [2, 3]: 12.1 nM
- IC50 [2, 4]: 10 nM
- IC50 [2, 5]: 71.4 nM
- relative cell number (no anticancer agent = 100) ([2]; agent 0.005 μM, comparison control (0.015 (w/v)% deacylated gellan gum medium)): 62.8
- relative cell number (no anticancer agent = 100) ([2]; agent 0.005 μM, low-molecular agar-containing medium): 59.5
- relative cell number (no anticancer agent = 100) ([2]; agent 0.005 μM, negative control (DMEM, 10% FBS, attachment surface plate)): 94
- relative cell number (no anticancer agent = 100) ([2]; agent 0.05 μM, comparison control (0.015 (w/v)% deacylated gellan gum medium)): 29.5
- relative cell number (no anticancer agent = 100) ([2]; agent 0.05 μM, low-molecular agar-containing medium): 27.8
- relative cell number (no anticancer agent = 100) ([2]; agent 0.05 μM, negative control (DMEM, 10% FBS, attachment surface plate)): 55.9
- relative cell number (no anticancer agent = 100) ([2]; agent 0.5 μM, comparison control (0.015 (w/v)% deacylated gellan gum medium)): 8.6
- relative cell number (no anticancer agent = 100) ([2]; agent 0.5 μM, low-molecular agar-containing medium): 8.1
- relative cell number (no anticancer agent = 100) ([2]; agent 0.5 μM, negative control (DMEM, 10% FBS, attachment surface plate)): 12.3

SMILES: CC(=O)Nc1cccc(-n2c(=O)n(C3CC3)c(=O)c3c(Nc4ccc(I)cc4F)n(C)c(=O)c(C)c32)c1 [trametinib]
- IC50 [1, 6]: 5.1 nM
- average cell number per sphere ([1]; agent 0.001 μM): 4.272
- average dead cell number in sphere ([1]; agent 0.001 μM): 0.073
- average sphere number per 20 mm^2 ([1]; agent 0.001 μM): 218.7
- projected area ([1]; agent 0.001 μM): 1200 μm^2
- average cell number per sphere ([1]; agent 0.01 μM): 2.906
- average dead cell number in sphere ([1]; agent 0.01 μM): 0.09
- average sphere number per 20 mm^2 ([1]; agent 0.01 μM): 173.9
- projected area ([1]; agent 0.01 μM): 976.6 μm^2
- average cell number per sphere ([1]; agent 0.1 μM): 1.867
- average dead cell number in sphere ([1]; agent 0.1 μM): 0.178
- average sphere number per 20 mm^2 ([1]; agent 0.1 μM): 132.8
- projected area ([1]; agent 0.1 μM): 618.3 μm^2
- IC50 [2, 3]: 11.5 nM
- IC50 [2, 4]: 8.1 nM
- IC50 [2, 5]: 62.5 nM
- relative cell number (no anticancer agent = 100) [2, 7]: 93.3
- relative cell number (no anticancer agent = 100) [2, 8]: 92.2
- relative cell number (no anticancer agent = 100) [2, 9]: 101.2
- relative cell number (no anticancer agent = 100) [2, 10]: 52.5
- relative cell number (no anticancer agent = 100) [2, 11]: 45.8
- relative cell number (no anticancer agent = 100) [2, 12]: 99
- relative cell number (no anticancer agent = 100) [2, 13]: 18.1
- relative cell number (no anticancer agent = 100) [2, 14]: 18.2
- relative cell number (no anticancer agent = 100) [2, 15]: 37.4

SMILES: NC1(c2ccc(-c3nc4ccn5c(=O)[nH]nc5c4cc3-c3ccccc3)cc2)CCC1 [MK2206]
- IC50 [1, 6]: 210 nM
- average cell number per sphere ([1]; agent 0.001 μM): 5.044
- average dead cell number in sphere ([1]; agent 0.001 μM): 0.104
- average sphere number per 20 mm^2 ([1]; agent 0.001 μM): 230.6
- projected area ([1]; agent 0.001 μM): 1361 μm^2
- average cell number per sphere ([1]; agent 0.01 μM): 4.774
- average dead cell number in sphere ([1]; agent 0.01 μM): 0.074
- average sphere number per 20 mm^2 ([1]; agent 0.01 μM): 213.7
- projected area ([1]; agent 0.01 μM): 1343 μm^2
- average cell number per sphere ([1]; agent 0.1 μM): 4.323
- average dead cell number in sphere ([1]; agent 0.1 μM): 0.076
- average sphere number per 20 mm^2 ([1]; agent 0.1 μM): 206.1
- projected area ([1]; agent 0.1 μM): 1199 μm^2
- average cell number per sphere ([1]; agent 1 μM): 3.423
- average dead cell number in sphere ([1]; agent 1 μM): 0.332
- average sphere number per 20 mm^2 ([1]; agent 1 μM): 142.3
- projected area ([1]; agent 1 μM): 931.2 μm^2
- IC50 [2, 3]: 210 nM
- IC50 [2, 4]: 250 nM
- IC50 [2, 5]: ≥ 1000 nM
- relative cell number (no anticancer agent = 100) [2, 7]: 95.8
- relative cell number (no anticancer agent = 100) [2, 8]: 100.1
- relative cell number (no anticancer agent = 100) [2, 9]: 100.2
- relative cell number (no anticancer agent = 100) [2, 10]: 89.1
- relative cell number (no anticancer agent = 100) [2, 11]: 93.9
- relative cell number (no anticancer agent = 100) [2, 12]: 101.3
- relative cell number (no anticancer agent = 100) [2, 13]: 61.8
- relative cell number (no anticancer agent = 100) [2, 14]: 66.5
- relative cell number (no anticancer agent = 100) [2, 15]: 97.6
- relative cell number (no anticancer agent = 100) ([2]; agent 1 μM, comparison control (0.015 (w/v)% deacylated gellan gum medium)): 25.2
- relative cell number (no anticancer agent = 100) ([2]; agent 1 μM, low-molecular agar-containing medium): 25.7
- relative cell number (no anticancer agent = 100) ([2]; agent 1 μM, negative control (DMEM, 10% FBS, attachment surface plate)): 95.7

Reference: patent US10914725B2, “Culture medium additive, culture medium composition, and method for culturing cells or tissue using same” (NISSAN CHEMICAL INDUSTRIES, LTD., priority 2015, dated 2021)
